Columns and labels:
[1] = test system: barnyardgrass (ECHCG); experiment: Test J Compounds 2 and 6 alone and in combination with other herbicides, foliage spray; assay type: in vivo, Echinochloa crus-galli; design: key to ECHCG Obsd.: percentage herbicidal effect (observed); conditions: for ECHCG Obsd.: applied alone
From the text: Colby's Equation was used to calculate the expected additive herbicidal effect of the mixtures of Compound 6 with Harmony® Extra (i.e. a 2:1 mixture by weight of thifensulfuron-methyl and tribenuron-methyl). Colby's Equation (Colby, S. R. “Calculating Synergistic and Antagonistic Responses of Herbicide Combinations,” Weeds, 15(1), pp 20-22 (1967)) calculates the expected additive effect of herbicidal mixtures, and for two active ingredients is of the form: Pa+b=Pa+Pb−(PaPb/100) wherein • Pa+b is the percentage effect of the mixture expected from additive contribution of the individual components, • Pa is the observed percentage effect of the first active ingredient at the same use rate as in the mixture, and • Pb is the observed percentage effect of the second active ingredient at the same use rate as in the mixture.
(§1) Seeds of test plants consisting of barnyardgrass (ECHCG; Echinochloa crus-galli (L.) Beauv.), blackgrass (ALOMY; Alopecurus myosuroides Huds.), Surinam grass (BRADC; Urochloa decumbens (Staph) R. D. Webster, previously named Brachiaria decumbens Stapf), cocklebur (XANST, Xanthium strumarium L.), corn (ZEAMD, Zea mays L. cv. ‘Pioneer 33G26’), large crabgrass (DIGSA, Digitaria sanguinalis (L.) Scop.), giant foxtail (SETFA, Setaria faberi Herrm.), lambsquarters (CHEAL, Chenopodium album L.), morningglory (IPOCO, Ipomoea coccinea L.), pigweed (AMARE, Amaranthus retroflexus L.), velvetleaf (ABUTH, Abutilon theophrasti Medik.) wheat (TRZAS, Triticum aestivum L. cv. ‘Recital’) and wild oat (AVEFA, Avena fatua L.) were planted in Redi-Earth® planting medium (Scotts Company, 14111 Scottslawn Road, Marysville, Ohio 43041) comprising spaghnum peat moss and vermiculite. Seeds of small-seeded species were planted about 1 cm deep; larger seeds were planted about 2.5 cm deep. Plants were grown in a greenhouse using supplemental lighting to maintain a photoperiod of about 14 hours; daytime and nighttime temperatures were about 24-30° C. and 22-25° C., respectively. […] Also listed in Table J are the expected effects for the mixtures calculated using Colby's Equation.

[2] = test system: cocklebur (XANST); experiment: as above; assay type: in vivo, Xanthium strumarium; design: key: 0 = no effect, 100 = complete control; conditions: applied alone
From the text: as §1, with “respectively. Balanced fertilizer was applied through the watering system.” for “respectively.”

[3] = test system: lambsquarters (CHEAL); experiment: as above; assay type: in vivo, Chenopodium album; design: key: % herbicidal effect (observed); conditions: applied alone
From the text: (§2) Colby's Equation was used to calculate the expected additive herbicidal effect of the mixtures of Compound 6 with Harmony® Extra (i.e. a 2:1 mixture by weight of thifensulfuron-methyl and tribenuron-methyl). […]
as §1, with “vermiculite.” for “vermiculite. Seeds of small-seeded species were planted about 1 cm deep; larger seeds were planted about 2.5 cm deep. Plants were grown in a greenhouse using supplemental lighting to maintain a photoperiod of about 14 hours; daytime and nighttime temperatures were about 24-30° C. and 22-25° C., respectively.”

[4] = test system: velvetleaf (ABUTH); experiment: as above; assay type: in vivo, Abutilon theophrasti; design: key: 0 = no effect, 100 = complete control; conditions: applied alone
From the text: as §2
as §1, with “vermiculite.” for “vermiculite. Seeds of small-seeded species were planted about 1 cm deep; larger seeds were planted about 2.5 cm deep. Plants were grown in a greenhouse using supplemental lighting to maintain a photoperiod of about 14 hours; daytime and nighttime temperatures were about 24-30° C. and 22-25° C., respectively.”

[5] = test system: blackgrass; experiment: Test F pre-/postemergence herbicide test; assay type: in vivo, Alopecurus myosuroides
From the text: (§3) Seeds of plant species selected from annual blugrass (Poa annua L.), blackgrass (Alopecurus myosuroides Huds.), catchweed bedstraw (Gallium aparine L.), common chickweed (Stellaria media (L.) Vill./Cyr.), downy bromegrass (Bromus tectorum L.), green foxtail (Setaria viridis (L.) Beauv.), Italian ryegrass (Lolium multiflorum Lam.), kochia (Kochia scoparia (L.). Schrad.), lambsquarters (Chenopodium album L.), littleseed canarygrass (Phalaris minor Retz.), pigweed (Amaranthus retroflexus L.), Russian thistle (Salsola kali L. ssp. Ruthenica (Iljin) Soo), wild buckwheat (Polygonum convolvulus L.), wild mustard (Sinapis arvensis L.), wild oat (Avena fatua L.), windgrass (Apera spica-venti (L.) Beauv.), winter barley (Hordeum vulgare L.), and wheat (Triticum aestivum L.) were planted and treated preemergence with test chemicals formulated in a non-phytotoxic solvent mixture which included a surfactant.
(§4) At the same time, plants selected from these crop and weed species were treated with postemergence applications of some of the test chemicals formulated in the same manner. Plants ranged in height from 2 to 18 cm (1- to 4-leaf stage) for postemergence treatments. Treated plants and controls were maintained in a greenhouse for 12 to 14 days, after which time all species were compared to controls and visually evaluated. Plant response ratings, summarized in Table F, are based on a scale of 0 to 100 where 0 is no effect and 100 is complete control. A dash (-) response means no test result.

[6] = test system: catchweed bedstraw; experiment: Test F pre-/postemergence herbicide test; assay type: in vivo, Gallium aparine
From the text: as §3, §4

[7] = test system: wild buckwheat; experiment: Test F pre-/postemergence herbicide test; assay type: in vivo, Polygonum convolvulus
From the text: as §3, §4

[8] = test system: windgrass; experiment: Test F pre-/postemergence herbicide test; assay type: in vivo, Apera spica-venti
From the text: as §3, §4

In the case of `CCn1nc(C(C)(C)C)cc1C(=O)Nc1cc(C(=O)N(C)C)ccc1F` [Compound 6, N-[5-[(dimethylamino)carbonyl]-2-fluorophenyl]-3-(1,1-dimethylethyl)-1-ethyl-1H-pyrazole-5-carboxamide], the “ECHCG Obsd.” value ([1]; 62 g a.i./ha) is reported as 17, the “ECHCG Obsd.” value ([1]; 125 g a.i./ha) is reported as 63 and the “observed effect of mixture compared with additive effect expected from Colby's Equation” value ([1]; mixture with terbacil, barnyardgrass, foliage spray, 15 days after treatment) is reported as “greater than additive”. The “XANST Obsd.” value ([2]; 62 g a.i./ha) was 67, the “XANST Obsd.” value ([2]; 125 g a.i./ha) was 63 and the “CHEAL Obsd.” value ([3]; 62 g a.i./ha) was 43. The “CHEAL Obsd.” value ([3]; 125 g a.i./ha) was 68, the “ABUTH Obsd.” value ([4]; 62 g a.i./ha) was 27 and the “ABUTH Obsd.” value ([4]; 125 g a.i./ha) was 47.
With `CCn1nc(C(C)(C)C)cc1C(=O)Nc1cc(C(=O)OC(C)C)c(F)cc1F` [Compound 248] the “Plant response rating (0-100), Blackgrass” value ([5]; Postemergence, 31 g ai/ha) was 45, the “Plant response rating (0-100), Blackgrass” value ([5]; Postemergence, 62 g ai/ha) was 50 and the “Plant response rating (0-100), Blackgrass” value ([5]; Postemergence, 125 g ai/ha) was 60. The “Plant response rating (0-100), Blackgrass” value ([5]; Postemergence, 250 g ai/ha) was 60, the “Plant response rating (0-100), Blackgrass” value ([5]; Preemergence, 31 g ai/ha) was 50 and the “Plant response rating (0-100), Blackgrass” value ([5]; Preemergence, 62 g ai/ha) was 50. The “Plant response rating (0-100), Blackgrass” value ([5]; Preemergence, 125 g ai/ha) was 65, the “Plant response rating (0-100), Blackgrass” value ([5]; Preemergence, 250 g ai/ha) was 65 and the “Plant response rating (0-100), Galium” value ([6]; Postemergence, 31 g ai/ha) was 50. For the same compound, the “Plant response rating (0-100), Galium” value ([6]; Postemergence, 62 g ai/ha) was 50, the “Plant response rating (0-100), Galium” value ([6]; Postemergence, 125 g ai/ha) was 60 and the “Plant response rating (0-100), Galium” value ([6]; Postemergence, 250 g ai/ha) was 60. For the same compound, the “Plant response rating (0-100), Galium” value ([6]; Preemergence, 31 g ai/ha) was 30, the “Plant response rating (0-100), Galium” value ([6]; Preemergence, 62 g ai/ha) was 50 and the “Plant response rating (0-100), Galium” value ([6]; Preemergence, 125 g ai/ha) was 50. The “Plant response rating (0-100), Galium” value ([6]; Preemergence, 250 g ai/ha) was 60, the “Plant response rating (0-100), Buckwheat, Wild” value (“Plant response rating … Wild” for short) ([7]; Postemergence, 31 g ai/ha) was 50 and the “Plant response rating … Wild” value ([7]; Postemergence, 62 g ai/ha) was 50. For the same compound, the “Plant response rating … Wild” value ([7]; Postemergence, 125 g ai/ha) was 50, the “Plant response rating … Wild” value ([7]; Postemergence, 250 g ai/ha) was 60 and the “Plant response rating … Wild” value ([7]; Preemergence, 31 g ai/ha) was 30. The “Plant response rating … Wild” value ([7]; Preemergence, 62 g ai/ha) was 40, the “Plant response rating … Wild” value ([7]; Preemergence, 125 g ai/ha) was 45 and the “Plant response rating … Wild” value ([7]; Preemergence, 250 g ai/ha) was 60. The “Plant response rating (0-100), Windgrass” value ([8]; Postemergence, 31 g ai/ha) was 50, the “Plant response rating (0-100), Windgrass” value ([8]; Postemergence, 62 g ai/ha) was 50 and the “Plant response rating (0-100), Windgrass” value ([8]; Postemergence, 125 g ai/ha) was 50. The “Plant response rating (0-100), Windgrass” value ([8]; Postemergence, 250 g ai/ha) was 50, the “Plant response rating (0-100), Windgrass” value ([8]; Preemergence, 31 g ai/ha) was 70 and the “Plant response rating (0-100), Windgrass” value ([8]; Preemergence, 62 g ai/ha) was 70. The “Plant response rating (0-100), Windgrass” value ([8]; Preemergence, 125 g ai/ha) was 100 and the “Plant response rating (0-100), Windgrass” value ([8]; Preemergence, 250 g ai/ha) was 100.
